# Experimental data reported in ChEMBL document CHEMBL1126867, “Antipicornavirus activity of tetrazole analogues related to disoxaril” (1993).
# Active and inactive are the calls of the source. No cut-off for these calls is given here.
# Columns and labels:
# Human rhinovirus sp. [1] = assay: (§1) Minimum inhibitory concentration which inhibits 80% of serotypes was determined; assay type: functional
# rhinovirus B14 [2] = assay: In vitro antiviral activity against human rhinovirus-14 using plaque reduction assay; assay type: functional, human rhinovirus type 14; settings: Rhinovirus B
# Human rhinovirus 1A [3] = assay: In vitro antiviral activity against human rhinovirus-1A using plaque reduction assay; assay type: functional
# Human rhinovirus 1A [4] = assay: In vitro antiviral activity against human rhinovirus-1A using plaque reduction assay; not active; assay type: functional, organism-based
# rhinovirus B14 [5] = assay: In vitro antiviral activity against human rhinovirus-14 using plaque reduction assay; not active; assay type: functional, organism-based; settings: human rhinovirus type 14
# Human rhinovirus sp. [6] = assay: In vitro antiviral activity against human rhinovirus 6 serotype; assay type: functional
# Human rhinovirus sp. [7] = assay: In vitro antiviral activity against human rhinovirus-25 serotype; assay type: functional
# Human rhinovirus sp. [8] = assay: (§2) In vitro antiviral activity against human rhinovirus 1A serotype; assay type: functional
# Human rhinovirus sp. [9] = assay: In vitro antiviral activity against human rhinovirus 1B serotype; assay type: functional
# Human rhinovirus sp. [10] = assay: In vitro antiviral activity against human rhinovirus 14 serotype; assay type: functional
# Human rhinovirus sp. [11] = assay: In vitro antiviral activity against human rhinovirus 67 serotype; assay type: functional
# Human rhinovirus sp. [12] = assay: In vitro antiviral activity against human rhinovirus 2 serotype; assay type: functional
# Human rhinovirus sp. [13] = assay: In vitro antiviral activity against human rhinovirus 86 serotype; assay type: functional
# Human rhinovirus sp. [14] = assay: In vitro antiviral activity against human rhinovirus-15 serotype; assay type: functional
# Human rhinovirus sp. [15] = assay: In vitro antiviral activity against human rhinovirus-21 serotype; assay type: functional
# Human rhinovirus sp. [16] = assay: In vitro antiviral activity against human rhinovirus 89 serotype; assay type: functional
# Human rhinovirus sp. [17] = assay: In vitro antiviral activity against human rhinovirus-30 serotype; assay type: functional
# Human rhinovirus sp. [18] = assay: In vitro antiviral activity against human rhinovirus-41 serotype; assay type: functional
# Human rhinovirus sp. [19] = assay: In vitro antiviral activity against human rhinovirus-22 serotype; assay type: functional
# Human rhinovirus sp. [20] = assay: In vitro antiviral activity against human rhinovirus 50 serotype; assay type: functional
# Human rhinovirus 1A [21] = assay: as §2; assay type: functional
# [22] = test system: Human rhinovirus 1B (rhinovirus A); assay: In vitro antiviral activity against human rhinovirus 1B serotype
# [23] = as §1; assay type: functional, human rhinovirus-1a, 14; settings: Human rhinovirus sp.
SMILES,MIC80 (Human rhinovirus sp. [1]),MIC50 (rhinovirus B14 [2]),MIC50 (Human rhinovirus 1A [3]),other results
CCn1nnc(-c2cc(C)c(OCCCc3cc(C)no3)c(C)c2)n1,0.25 µM,0.8 µM,0.67 µM,
Cc1cc(-c2nnn(C)n2)cc(C)c1OCCCCCc1cc(CO)no1,1.59 µM,0.62 µM,0.18 µM,
Cc1cc(-c2nnn(C)n2)cc(C)c1OCCCc1cc(CCCO)no1,0.4 µM,0.17 µM,0.2 µM,
CCCCc1cc(CCCOc2c(C)cc(-c3nnn(C)n3)cc2C)on1,0.54 µM,0.11 µM,0.54 µM,
Cc1cc(-c2nnn(C)n2)cc(C)c1OCCCc1cc(CCO)no1,1.09 µM,2 µM,0.14 µM,
Cc1cc(CCCCCOc2c(C)cc(-c3nnn(C)n3)cc2C)on1,0.39 µM,0.45 µM,0.34 µM,
Cc1cc(-c2nnn(C)n2)cc(C)c1OCCCCCc1cc(COCCOCCOCCO)no1,,1.05 µM,4.9 µM,
Cc1cc(CCCCCOc2c(C)cc(-c3nnn(CCO)n3)cc2C)on1,,4.35 µM,,MIC50 (Human rhinovirus 1A [4]): inactive
Cc1cc(CCCCCCOc2c(C)cc(-c3nnn(C)n3)cc2C)on1,0.73 µM,1.91 µM,0.24 µM,
Cc1cc(-c2nnn(C)n2)cc(C)c1OCCCc1cc(C(C)O)no1 (stereo unspecified),1.1 µM,1.4 µM,0.14 µM,
COC(=O)Cn1nnc(-c2cc(C)c(OCCCCCc3cc(C)no3)c(C)c2)n1,,,,MIC50 (rhinovirus B14 [5]): inactive; MIC50 (Human rhinovirus 1A [4]): inactive
Cc1cc(COc2c(C)cc(-c3nnn(C)n3)cc2C)on1,,,,MIC50 (rhinovirus B14 [5]): inactive; MIC50 (Human rhinovirus 1A [4]): inactive
COc1cc(CCCOc2c(C)cc(-c3nnn(C)n3)cc2C)on1,0.33 µM,1.4 µM,0.11 µM,
CC(=O)c1cc(CCCOc2c(C)cc(-c3nnn(C)n3)cc2C)on1,,0.96 µM,0.12 µM,
Cc1cc(CCCCCCCOc2c(C)cc(-c3nnn(C)n3)cc2C)on1,1.6 µM,3 µM,0.76 µM,
CCC(O)c1cc(CCCOc2c(C)cc(-c3nnn(C)n3)cc2C)on1 (stereo unspecified),,0.13 µM,,MIC50 (Human rhinovirus 1A [4]): inactive
Cc1cc(CCOc2c(C)cc(-c3nnn(C)n3)cc2C)on1,,,2.14 µM,MIC50 (rhinovirus B14 [5]): inactive
CCCc1cc(CCCOc2c(C)cc(-c3nnn(C)n3)cc2C)on1,0.2 µM,0.12 µM,0.12 µM,MIC (Human rhinovirus sp. [6]): 0.15 µM; MIC (Human rhinovirus sp. [7]): 0.006 µM; MIC (Human rhinovirus sp. [1]): 0.2 µM; MIC (Human rhinovirus sp. [8]): 0.12 µM; MIC (Human rhinovirus sp. [9]): 0.03 µM; MIC (Human rhinovirus sp. [10]): 0.12 µM; MIC (Human rhinovirus sp. [11]): 0.22 µM; MIC (Human rhinovirus sp. [12]): 0.04 µM; MIC (Human rhinovirus sp. [13]): 0.12 µM; MIC (Human rhinovirus sp. [14]): 0.68 µM; MIC (Human rhinovirus sp. [15]): 0.02 µM; MIC (Human rhinovirus sp. [16]): 0.02 µM; MIC (Human rhinovirus sp. [17]): 0.2 µM; MIC (Human rhinovirus sp. [18]): 0.93 µM; MIC (Human rhinovirus sp. [19]): 0.08 µM; MIC (Human rhinovirus sp. [20]): 0.09 µM
CCc1cc(CCCOc2c(C)cc(-c3nnn(C)n3)cc2C)on1,0.41 µM,0.5 µM,0.05 µM,

SMILES,MIC80 (Human rhinovirus sp. [1]),MIC50 (rhinovirus B14 [2]),MIC50 (Human rhinovirus 1A [3]),other results
Cc1cc(-c2nnn(C)n2)cc(C)c1OCCCc1cc(CC(C)O)no1 (stereo unspecified),,1.8 µM,0.71 µM,
Cc1cc(CCCCCOc2c(Cl)cc(C3=NCCO3)cc2Cl)on1 [WIN-54954],,,,MIC (Human rhinovirus sp. [6]): 0.23 µM; MIC (Human rhinovirus sp. [7]): 0.29 µM; MIC (Human rhinovirus sp. [1]): 0.41 µM; MIC (Human rhinovirus 1A [21]): 2.51 µM; MIC (Human rhinovirus sp. [10]): 1.2 µM; MIC (Human rhinovirus sp. [11]): 0.18 µM; MIC (Human rhinovirus sp. [12]): 0.02 µM; MIC (Human rhinovirus sp. [13]): 0.21 µM; MIC [22]: 0.17 µM; MIC (Human rhinovirus sp. [14]): 0.41 µM; MIC (Human rhinovirus sp. [15]): 0.02 µM; MIC (Human rhinovirus sp. [16]): 0.02 µM; MIC (Human rhinovirus sp. [17]): 0.09 µM; MIC (Human rhinovirus sp. [18]): 0.89 µM; MIC (Human rhinovirus sp. [19]): 0.02 µM; MIC (Human rhinovirus sp. [20]): 0.3 µM
CCCn1nnc(-c2cc(C)c(OCCCc3cc(C)no3)c(C)c2)n1,1.27 µM,1.6 µM,6.5 µM,
Cc1cc(-c2nnn(C)n2)cc(C)c1OCCCc1cc(C(C)C)no1,0.73 µM,0.73 µM,0.28 µM,
Cc1cc(CCCCCOc2c(Cl)cc(-c3nnn(C)n3)cc2Cl)on1,0.25 µM,0.38 µM,0.38 µM,
Cc1cc(CCCOc2c(C)cc(-c3nnn(C)n3)cc2C)on1,,1.74 µM,0.11 µM,MIC (Human rhinovirus sp. [6]): 2.2 µM; MIC (Human rhinovirus sp. [7]): 0.06 µM; MIC (Human rhinovirus sp. [1]): 0.4 µM; MIC (Human rhinovirus sp. [8]): 0.11 µM; MIC (Human rhinovirus sp. [9]): 0.03 µM; MIC (Human rhinovirus sp. [10]): 1.7 µM; MIC (Human rhinovirus sp. [11]): 0.14 µM; MIC (Human rhinovirus sp. [12]): 0.02 µM; MIC (Human rhinovirus sp. [13]): 2.05 µM; MIC (Human rhinovirus sp. [14]): 0.18 µM; MIC (Human rhinovirus sp. [15]): 0.02 µM; MIC (Human rhinovirus sp. [16]): 0.01 µM; MIC (Human rhinovirus sp. [17]): 0.07 µM; MIC (Human rhinovirus sp. [18]): 0.4 µM; MIC80 [23]: 0.4 µM; MIC (Human rhinovirus sp. [19]): 0.05 µM; MIC (Human rhinovirus sp. [20]): 0.23 µM
COCCc1cc(CCCOc2c(C)cc(-c3nnn(C)n3)cc2C)on1,0.3 µM,0.05 µM,0.12 µM,
Cc1cc(-c2nnn(C)n2)cc(C)c1OCCCc1cc(CC(C)C)no1,1.5 µM,0.32 µM,0.46 µM,
CCn1nnc(-c2cc(C)c(OCCCCCc3cc(C)no3)c(C)c2)n1,0.65 µM,0.73 µM,0.73 µM,
CCCOc1cc(CCCOc2c(C)cc(-c3nnn(C)n3)cc2C)on1,0.6 µM,0.08 µM,0.39 µM,
Cc1cc(-c2nnn(C)n2)cc(C)c1OCCCc1cc(C2CC2)no1,0.48 µM,0.48 µM,0.19 µM,
CCCCn1nnc(-c2cc(C)c(OCCCc3cc(C)no3)c(C)c2)n1,,,6.5 µM,MIC50 (rhinovirus B14 [5]): inactive
Cc1cc(-c2nnn(C)n2)cc(C)c1OCCCCCc1cc(COCOCCO)no1,,0.06 µM,4.03 µM,
Cc1cc(-c2nnn(C)n2)cc(C)c1OCCCc1cc(CC(O)CO)no1 (stereo unspecified),,,0.67 µM,MIC50 (rhinovirus B14 [5]): inactive
Cc1cc(-c2nnn(C)n2)cc(C)c1OCCCCCc1cc(C(=O)O)no1,,30.4 µM,1.4 µM,
COCCOCOCc1cc(CCCCCOc2c(C)cc(-c3nnn(C)n3)cc2C)on1,,0.33 µM,2.89 µM,
Cc1cc(CCCCOc2c(C)cc(-c3nnn(C)n3)cc2C)on1,0.66 µM,2.43 µM,0.1 µM,
Cc1cc(-c2nnn(C)n2)cc(C)c1OCCCc1cc(CO)no1,3.4 µM,3.4 µM,0.2 µM,
CCOc1cc(CCCOc2c(C)cc(-c3nnn(C)n3)cc2C)on1,0.7 µM,0.1 µM,0.15 µM,
